Reference: patent US20170348337A1, “MULTIFUNCTIONAL MEMBRANE-ACTIVE AMINOGLYCOSIDE-PEPTIDE CONJUGATES” (priority 2014, published 2017)
In brackets after ≈: the same amount, converted by molar mass. Entries after “also recorded” stand apart in the source; their conditions may differ.

Key:
[1] = synchrotron small angle X-ray scattering (SAXS) of model membranes; details: DOPE/DOPS=80/20; Pentobra to lipid 1/80; tobramycin to lipid 1/20 or 1/40
Procedure: Briefly, DOPE and DOPS lyophilized lipids from Avanti Polar lipids were used without further purification. SUVs were prepared by sonication. Stock solutions of DOPE and DOPS were prepared in chloroform at ˜20 mg/g. Mixtures of these lipids were prepared at molar ratios, so DOPE/DOPS=80/20 corresponded to a 4:1 lipid ratio. Chloroform was evaporated under N2, and the mixtures were dried further by overnight desiccation under vacuum. The dried lipids were resuspended the next day in 100 mM NaCl. Solutions were incubated at 37° C. for 18 h and then sonicated until clear. SUVs were obtained by extrusion (0.2 μm pore Nucleopore filter).
Pentobra and tobramycin stock solutions were prepared by dissolving the molecules in 100 mM NaCl. Lipids were thoroughly mixed with Pentobra/tobramycin at specific molecule to lipid ratios (P/L) in 100 mM NaCl. Sample solutions were hermetically sealed in quartz-glass capillaries (Hilgenberg GmbH, Mark-tubes, code no: 4017515). Synchrotron SAXS experiments were conducted at the Stanford Synchrotron Radiation Laboratory (BL 4-2). Monochromatic X-rays with 9 keV energy were used. Scattering was collected using a Rayonix MX225-HE detector (pixel size 73.2 μm). Samples were also measured at the California NanoSystems Institute (CNSI) at UCLA. […] Identical samples were prepared and measured at different times and multiple sources to ensure consistency between samples. […]

[2] = tested on: E. coli Dh5α persisters; experiment: persister cell plate killing assay; assay type: cell-based, Escherichia coli
Procedure: Procedure for preparing S. aureus SA113 and E. coli Dh5α persister cells were based on previous protocols. Cells from freshly streaked agar plates were inoculated in 1 mL TSB and incubated 16 h at 37° C. in a shaker incubator to obtain stationary phase cultures. Non-persister cells were eliminated by adding ampicillin to a final concentration of 100 μg/mL, followed by 3 h incubation at 37° C.
E. coli cells were pelleted (5000 rpm for 5 min), washed in M9 minimal media and resuspended in M9 minimal media to a final bacteria stock solution of 5×10^7 CFU/mL. 20 μL E. coli suspension was introduced into 180 μL M9 media containing various concentrations of antibiotic (Pentobra, tobramycin) in 96 well plates for a total of 10^6 CFU/well. The plates were sealed with parafilm, loaded onto microplate shakers and placed in a 37° C. incubator for 1.5 h. After incubation, 10-fold serial dilutions were made with M9 media. Half of each dilution (100 μL) was spotted onto LB agar plates and incubated overnight at 37° C. to yield visible colonies. The E. coli persister assays were performed in quadruplicate.
The bactericidal effects of Pentobra against persistent bacteria were investigated with plate killing assays. […]

[3] = tested on: P. acnes laboratory strain ATCC 6919; experiment: P. acnes CFU assay, laboratory strain; assay type: cell-based, Propionibacterium acnes
[4] = tested on: IL-6, IL-8, TNF-α and IL-12p40 in human monocytes; experiment: cytokine ELISA in P. acnes-activated monocytes; assay type: cell-based; details: 24 hrs co-treatment
Procedure: Peripheral blood mononuclear cells (PBMCs) were isolated from whole blood of normal healthy donors as approved by the Institutional Review Board at UCLA using Ficoll-Paque gradients (GE Healthcare, Piscataway, N.J.) and plated onto six-well tissue culture plates (20×10^6-30×10^6 per well) for 2 hours in RPMI 1640 medium (Invitrogen Life Technologies, Carlsbad, Calif.) supplemented with 1% fetal calf serum (Omega Scientific, Tarzana, Calif.). Nonadherent cells were removed by rigorously washing three times with RPMI. Adherent monocytes were stimulated (co-treated) with media or P. acnes in the presence of tobramycin or Pentobra in 10% fetal calf serum. P. acnes was used at an MOI of 0.5 and cells were cultured for 24 hours at 37° C.
IL-6, IL-8, Tumor necrosis factor alpha (TNF-α) and IL-12p40 levels in culture supernatants were measured by ELISA following the manufacturer's recommendations (Invitrogen). Samples were assayed in triplicates. Results are expressed as mean±SD of at least three independent experiments, with monocytes obtained from three independent donors.
Monocytes were cultured and evaluated for cytokine and chemokine expression by ELISA and real time PCR after 24 hrs.

[5] = tested on: Klebsiella (Kleb); experiment: microbe, parasite or virus in culture; assay type: cell-based; details: Klebsiella; isolate Kleb, W6921701-1; read-out: MIC
Description: Pentobra was screened against a broad panel of microbial pathogens, including strains of E. coli, MRSA, Klebsiella (Kleb), Acinetobacter (AcB), Vancomycin-Sensitive Enterococci (VSE) and Vancomycin-Resistant Enterococci (VRE), and specifically including E. faecalis samples. […] The experimenter reported the minimum inhibitory concentration (MIC) in mass units per unit volume (μg/mL) for each compound, and MIC data were converted into molar concentrations (μM) due to the large difference between the molecular weight of tobramycin (467.5 g/mol) and Pentobra (2277 g/mol).

[6] = tested on: P. aeruginosa; experiment: antimicrobial activity (MIC) of P-L-A conjugates; assay type: cell-based
[7] = aminoglycosides; cited from earlier work

Structure (SMILES): NC[C@H]1O[C@H](O[C@H]2[C@H](O)[C@@H](O[C@H]3O[C@H](CO)[C@@H](O)[C@H](N)[C@H]3O)[C@H](N)C[C@@H]2N)[C@H](N)C[C@@H]1O [tobramycin]
- induced membrane curvature / phase (negative Gaussian curvature, NGC) [1]: induced NGC was not observed; also recorded: did not induce NGC or negative mean curvature
- killing activity against persister cells ([2]; 1.5 h, entire range of tested concentrations): poor activity
- activity against persisters at high concentration ([2]; >50 μM): ineffective
- killing activity [3]: not strongly bactericidal
- reduction in CFU ([3]; 52 μM, 3 h): less than ten
- change in IL-6, IL-8, TNF-α and IL-12p40 cytokine production [4]: no significant change
- MIC [5]: 68 µM (≈ 31.8 µg/mL)
- MIC ([6]; Pseudomonas aeruginosa, read-out: MIC (μM) P. aeruginosa (stationary)): 6.25 µM (≈ 2.92 µg/mL)
- MIC (μM) P. aeruginosa (mid-log) ([6]; mid-log): 0.78-3.12 μM
- octanol→water partition coefficient Log P [7]: −3.41
